Data: ChEMBL document CHEMBL3885881, “DrugMatrix”

Species: Rattus norvegicus
Assay: DrugMatrix - Regimen: Daily Repeat
Type: toxicity, organism-based, Sprague-Dawley
Parameters: regimen Daily Repeat, gender Male, age 6-8 weeks
Settings: in vivo, po, 20 mg/kg, route oral GAVAGE, dose level Low, vehicle .5 % CMC; for ABSOLUTE BASOPHIL / ABSOLUTE EOSINOPHIL / ABSOLUTE LYMPHOCYTE / ABSOLUTE MONOCYTE / ABSOLUTE SEGMENTED NEUTROPHIL / BASOPHIL / EOSINOPHIL / ERYTHROCYTE COUNT / HEMATOCRIT / HEMOGLOBIN / LEUKOCYTE COUNT / LYMPHOCYTE / MEAN CORPUSCULAR HEMOGLOBIN / MEAN CORPUSCULAR HEMOGLOBIN CONCENTRATION / MEAN CORPUSCULAR VOLUME / MONOCYTE / NEUTROPHIL / NUCLEATED RED BLOOD CELLS / PLATELET COUNT: tissue Blood; for ALANINE AMINOTRANSFERASE / ALKALINE PHOSPHATASE / ASPARTATE AMINOTRANSFERASE / BLOOD UREA NITROGEN / CARBON DIOXIDE / CHLORIDE / CHOLESTEROL / CREATINE PHOSPHOKINASE / CREATININE / GLUCOSE / LACTATE DEHYDROGENASE / LIPASE / PHOSPHORUS / POTASSIUM / SODIUM / TOTAL BILIRUBIN / TOTAL PROTEIN / URIC ACID: tissue Plasma

Question: What does the source list for `O=C1CC2(CCCC2)CC(=O)N1CCCCN1CCN(c2ncccn2)CC1` [BUSPIRONE]?
Answer: ABSOLUTE BASOPHIL (72 h, time 3 day): 0 CELLS/uL; ABSOLUTE EOSINOPHIL (72 h, time 3 day): 51 CELLS/uL; ABSOLUTE LYMPHOCYTE (72 h, time 3 day): 11615 CELLS/uL; ABSOLUTE MONOCYTE (72 h, time 3 day): 151.33 CELLS/uL; ABSOLUTE SEGMENTED NEUTROPHIL (72 h, time 3 day): 1416 CELLS/uL; BASOPHIL (72 h, time 3 day): 0%; EOSINOPHIL (72 h, time 3 day): 0.33%; ERYTHROCYTE COUNT (72 h, time 3 day): 5.69 x10E6/uL; HEMATOCRIT (72 h, time 3 day): 36.17%; HEMOGLOBIN (72 h, time 3 day): 14.1 G/DL; LEUKOCYTE COUNT (72 h, time 3 day): 13.23 x10E3/uL; LYMPHOCYTE (72 h, time 3 day): 87.67%; MEAN CORPUSCULAR HEMOGLOBIN (72 h, time 3 day): 24.73 pg; MEAN CORPUSCULAR HEMOGLOBIN CONCENTRATION (72 h, time 3 day): 39 G/DL; MEAN CORPUSCULAR VOLUME (72 h, time 3 day): 63.57 fL; MONOCYTE (72 h, time 3 day): 1%; NEUTROPHIL (72 h, time 3 day): 11%; NUCLEATED RED BLOOD CELLS (72 h, time 3 day): 0.33 /100WBC; PLATELET COUNT (72 h, time 3 day): 1072.33 x10E3/uL; ALANINE AMINOTRANSFERASE (72 h, time 3 day): 59.33 u/L; ALKALINE PHOSPHATASE (72 h, time 3 day): 480 u/L; ASPARTATE AMINOTRANSFERASE (72 h, time 3 day): 97 u/L; BLOOD UREA NITROGEN (72 h, time 3 day): 15 mg/dL; CARBON DIOXIDE (72 h, time 3 day): 23 mmol/L; CHLORIDE (72 h, time 3 day): 102 MEQ/L; CHOLESTEROL (72 h, time 3 day): 82.33 mg/dL; CREATINE PHOSPHOKINASE (72 h, time 3 day): 412 u/L; CREATININE (72 h, time 3 day): 0.23 mg/dL; GLUCOSE (72 h, time 3 day): 167 mg/dL; LACTATE DEHYDROGENASE (72 h, time 3 day): 304.33 u/L; LIPASE (72 h, time 3 day): 9 u/L; PHOSPHORUS (72 h, time 3 day): 13.47 mg/dL; POTASSIUM (72 h, time 3 day): 6.53 MEQ/L; SODIUM (72 h, time 3 day): 146.87 MEQ/L; TOTAL BILIRUBIN (72 h, time 3 day): 0.2 mg/dL; TOTAL PROTEIN (72 h, time 3 day): 6 G/DL; URIC ACID (72 h, time 3 day): 1.9 mg/dL; ABSOLUTE BASOPHIL (120 h, time 5 day): 0 CELLS/uL; ABSOLUTE EOSINOPHIL (120 h, time 5 day): 106.67 CELLS/uL; ABSOLUTE LYMPHOCYTE (120 h, time 5 day): 13027.67 CELLS/uL; ABSOLUTE MONOCYTE (120 h, time 5 day): 125.67 CELLS/uL; ABSOLUTE SEGMENTED NEUTROPHIL (120 h, time 5 day): 973.33 CELLS/uL; BASOPHIL (120 h, time 5 day): 0%; EOSINOPHIL (120 h, time 5 day): 0.67%; ERYTHROCYTE COUNT (120 h, time 5 day): 5.35 x10E6/uL; HEMATOCRIT (120 h, time 5 day): 34.23%; HEMOGLOBIN (120 h, time 5 day): 13.57 G/DL; LEUKOCYTE COUNT (120 h, time 5 day): 14.23 x10E3/uL; LYMPHOCYTE (120 h, time 5 day): 91.67%; MEAN CORPUSCULAR HEMOGLOBIN (120 h, time 5 day): 25.4 pg; MEAN CORPUSCULAR HEMOGLOBIN CONCENTRATION (120 h, time 5 day): 39.67 G/DL; MEAN CORPUSCULAR VOLUME (120 h, time 5 day): 64.03 fL; MONOCYTE (120 h, time 5 day): 1%; NEUTROPHIL (120 h, time 5 day): 6.67%; NUCLEATED RED BLOOD CELLS (120 h, time 5 day): 0 /100WBC; PLATELET COUNT (120 h, time 5 day): 1461 x10E3/uL; ALANINE AMINOTRANSFERASE (120 h, time 5 day): 42.33 u/L; ALKALINE PHOSPHATASE (120 h, time 5 day): 354 u/L; ASPARTATE AMINOTRANSFERASE (120 h, time 5 day): 77 u/L; BLOOD UREA NITROGEN (120 h, time 5 day): 14.67 mg/dL; CARBON DIOXIDE (120 h, time 5 day): 24.33 mmol/L; CHLORIDE (120 h, time 5 day): 102.33 MEQ/L; CHOLESTEROL (120 h, time 5 day): 67 mg/dL; CREATINE PHOSPHOKINASE (120 h, time 5 day): 241.33 u/L; CREATININE (120 h, time 5 day): 0.14 mg/dL; GLUCOSE (120 h, time 5 day): 154 mg/dL; LACTATE DEHYDROGENASE (120 h, time 5 day): 200.67 u/L; LIPASE (120 h, time 5 day): 8.33 u/L; PHOSPHORUS (120 h, time 5 day): 14.3 mg/dL; POTASSIUM (120 h, time 5 day): 7.16 MEQ/L; SODIUM (120 h, time 5 day): 144.93 MEQ/L; TOTAL BILIRUBIN (120 h, time 5 day): 0.23 mg/dL; TOTAL PROTEIN (120 h, time 5 day): 5.63 G/DL; URIC ACID (120 h, time 5 day): 1.97 mg/dL
